# Values quoted from earlier work in patent US20230000835A1, “LYSINE-SPECIFIC HISTONE DEMETHYLASE INHIBITORS FOR THE TREATMENT OF MYELOPROLIFERATIVE NEOPLASMS” (Imago Biosciences, Inc., priority 2019, published 2023).
# Test system: primary myelofibrosis patients
# Conditions: 50 to 100 mg/day in combination with prednisone; cited from earlier work
compound,measurement,value
O=C1CCC(N2C(=O)c3ccccc3C2=O)C(=O)N1 (centres unmarked) [Thalidomide],primary myelofibrosis patients with improved anemia and thrombocytopenia,approximately 60%
same,primary myelofibrosis patients with reduced spleen size,approximately 20%
